Series [1] in a line: TRM-201-PK-101 single-dose pharmacokinetic study, 25 mg, fasted healthy subjects. The following applies: for Cmax / AUC(0-inf) / AUC: human, plasma, oral. The series is classed as in vivo, human. The protocol:
A Single-Dose, Open-Label, Phase 1, Adaptive Pharmacokinetic Study of TRM-201 (Rofecoxib) 25 mg Administered to Healthy Subjects in a Fasting State, with Comparison to Historical Pharmacokinetic Parameters of Previously Marketed Rofecoxib and a Food-Effect Substudy (“TRM-201-PK-101” or “101 PK Study”)
This is a single-center, open-label, adaptive PK study of TRM-201 consisting of a MAIN study with a PILOT portion conducted under a fasted condition, and a two-period crossover, FOOD-EFFECT sub study under both fasted and fed conditions. The PILOT portion of the study (21 subjects) will include a single dose of TRM-201 in a single group to assess the PK of TRM-201 in healthy volunteers under fasted conditions. Following completion of the PILOT portion and the decision to move forward, an additional 16 subjects will be enrolled in the MAIN study and an additional 16 subjects will be enrolled in the FOOD-EFFECT sub study. The MAIN study will include a single dose of TRM-201 to assess the PK of TRM-201 in healthy volunteers under fasted conditions. The FOOD-EFFECT sub study is a single-dose, two-period crossover study. A single dose of TRM-201 will be given on Day 1 of each dosing period to assess the PK of TRM-201 in healthy volunteers under both fasted and fed conditions. Subjects will be randomized 1:1 into the two sequences fasted followed by fed, and fed followed by fasted.
After Check-In, subjects will fast overnight for at least 10 hours before study drug administration. While fasting, subjects will have nothing to eat and only water to drink. Water will be permitted as desired, except for the period between 1 hour before and 1 hour after study drug dosing (excepting as permitted for dosing). After the 2-hour PK blood sample, subjects will be allowed one 250-mL cup of clear apple juice. After the 4-hour PK blood sample, subjects will be served a light lunch. Following the light lunch, subjects should receive standardized meals according to the clinic's standard procedures that are scheduled at consistent times and at least 15 minutes before or 15 minutes after PK sampling time points. Blood will be withdrawn for PK analysis at predefined time points as defined in Table 8. The last time point will be 120 hours after dosing with study drug. After the 120-hour PK sample, the EOS procedures will be completed, and subjects will be discharged from the clinic.
This is an open-label PK study. Each subject is scheduled to receive a single 25-mg dose of TRM-201 in the PILOT portion and the MAIN study, and a single 25-mg dose of TRM-201 twice in the FOOD-EFFECT sub study. TRM-201 manufactured and formulated as Batch 5 (B18090) and Batch 6 (B18091), above, will be used in the study.
The time points and windows for PK blood sampling for the PILOT portion, Main study and FOOD-EFFECT substudy are presented in Table 14 below. For each sample, approximately 3 mL of blood will be drawn. The samples may be obtained by a straight stick or via an in-dwelling intravenous (IV) catheter in a forearm vein. Additional details for the collection, processing, storage, and shipping of PK samples will be provided in the study manual.
Pharmacokinetic samples will be analyzed using a validated assay for rofecoxib in human plasma. Assay results and validation details will be provided in a separate bioanalytical report.
The following PK parameters for rofecoxib will be calculated as primary endpoints using standard noncompartmental methods for both the PILOT portion and MAIN study, and the FOOD-EFFECT sub study: AUC0-∞ and Cmax. Secondary endpoints include Tmax, and t1/2. Additional PK parameters (e.g., CL/F, and Vd/F) will also be calculated using standard noncompartmental methods.
The PK parameters of rofecoxib will be analyzed based on the actual sampling times. All parameters will be calculated using the Phoenix® WinNonlin® version 6.4 or higher (Certara USA Inc., Princeton, N.J.) or SAS® version 9.3 or higher (SAS Institute Inc., Cary, N.C.). […]

A further series addresses COX-2 (Homo sapiens, UniProt P35354). The following applies: at therapeutic concentrations; cited from earlier work.
[2] abbreviates: 25 mg, versus Schwartz data, FIG. 28.

Read-outs that look alike come from different tables or passages of the source.

Sequence of COX-2 (P35354 18-604): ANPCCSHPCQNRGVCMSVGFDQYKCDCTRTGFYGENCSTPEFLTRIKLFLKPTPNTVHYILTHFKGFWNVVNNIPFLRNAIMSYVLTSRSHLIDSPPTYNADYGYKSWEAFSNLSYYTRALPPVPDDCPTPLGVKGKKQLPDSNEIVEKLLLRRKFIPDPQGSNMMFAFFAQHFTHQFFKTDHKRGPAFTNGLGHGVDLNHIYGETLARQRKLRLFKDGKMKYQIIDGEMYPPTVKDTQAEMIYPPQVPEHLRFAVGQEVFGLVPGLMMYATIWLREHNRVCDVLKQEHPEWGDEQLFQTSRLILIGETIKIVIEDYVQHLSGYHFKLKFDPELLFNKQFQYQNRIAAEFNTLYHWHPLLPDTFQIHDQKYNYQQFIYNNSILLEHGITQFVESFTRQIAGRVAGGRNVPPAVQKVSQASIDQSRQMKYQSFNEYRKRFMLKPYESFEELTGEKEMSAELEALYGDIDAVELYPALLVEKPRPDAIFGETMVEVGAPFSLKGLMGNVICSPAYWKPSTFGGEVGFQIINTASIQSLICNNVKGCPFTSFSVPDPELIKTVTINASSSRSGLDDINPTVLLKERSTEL

For the compound `CS(=O)(=O)c1ccc(C2=C(c3ccccc3)C(=O)OC2)cc1` [TRM-201, 4-[4-(methylsulfonyl)phenyl]-3-phenyl-2(5H)-furanone], in series [1] (setting [2]), the “AUC0-∞ compared to historical data” value is given as “larger”. In addition, the “Cmax compared to historical data” value in series [1] (setting [2]) was “higher”. The Cmax in series [1] (17.5 mg, 17.5 mg formulation, estimated from 101 data, read-out: estimated Cmax) was ~238 ng/mL; in series [1] (17.5 mg, extrapolated from 25 mg assuming dose linearity, read-out: extrapolated Cmax), 223 ng/mL; in series [1] (20 mg, 20 mg formulation, estimated from 101 data, read-out: estimated Cmax), ~266 ng/mL; in series [1] (20 mg, extrapolated from 25 mg assuming dose linearity, read-out: extrapolated Cmax) it was 254 ng/mL; in series [1] (25 mg, 25 mg formulation in TRM-201-PK-101, as stated in Example 6, read-out: Geometric mean Cmax) it was 320 ng/mL; in series [1] (25 mg, fasted, FIG. 25, read-out: geometric mean Cmax), 318 ng/mL. The AUC(0-inf) in series [1] (17.5 mg, extrapolated from 25 mg assuming dose linearity, read-out: extrapolated AUC0-∞) is 3250 ng·h/mL; in series [1] (20 mg, extrapolated from 25 mg assuming dose linearity, read-out: extrapolated AUC0-∞), 3710 ng·h/mL; in series [1] (25 mg, fasted, FIG. 25, read-out: geometric mean AUC0-∞) it was 4640 ng·h/mL. Further, the AUC in series [1] (17.5 mg formulation, estimated from 101 data, read-out: estimated AUC) was ~3280 ng·h/mL; in series [1] (20 mg formulation, estimated from 101 data, read-out: estimated AUC) it was ~3740 ng·h/mL; in series [1] (25 mg formulation in TRM-201-PK-101, as stated in Example 6, read-out: Geometric mean AUC), 4680 ng·h/mL. Further, the “inhibition of COX-2” value at COX-2 was “inhibits COX-2”.

The Cmax is the peak of the concentration-time curve. The term AUC denotes the area under the concentration-time curve, a measure of exposure.
